Experiments:
Type in all cases: cell-based
[1] = tested on: Human Brain Tumor Cells U251MG NCI; assay: MTT assay, human brain tumor cell growth, U251MG NCI; details: U-251, 144 h, MTT six days after drug treatment, read-out: ID50(μM) values for Human Brain Tumor Cells U251MG NCI
Method: (§1) A conventional MTT assay was used to evaluate percent cell survival. Exponentially growing monolayer cells were plated in 96-well plates at a density of 500 cells per well and allowed to grow for 24 hours. Serial dilutions of the drugs were added to the wells. Six days after drug treatment, 25 μl of MTT solution (5 mg/ml) was added to each well and incubated for 4 hours at 37° C. Then 100 μl of lysis buffer (20% sodium dodecyl sulfate, 50% DMF, and 0.8% acetic acid, pH 4.7) was added to each well and incubated for an additional 22 hours. A microplate reader (“EMAX”-brand, Molecular Devices, Sunnyvale, Calif.) set at 570 nm was used to determine the optical density of the cultures. Results are expressed as a ratio of the optical density in drug-treated wells to the optical density in wells treated with vehicle only. FIGS. 1–13 also indicate the effects of the compounds on various cell lines.

[2] = tested on: BxPC-3 human pancreatic cancer cells; assay: MTT assay, human pancreatic cancer cell growth, BxPC-3; details: 144 h, BxPC-3 cells, MTT six days after drug treatment, read-out: ID50(μM) values for Human Pancreatic Cancer Cell Lines BxPC-3
Method: as §1

[3] = tested on: Tsu-pr1-ADR human prostate tumor cells; assay: MTT assay, human prostate tumor cell growth, Tsu-pr1-ADR; details: 144 h, MTT six days after drug treatment, read-out: ID50 (μM) values for Human prostate tumor Cell Lines Tsu-pr1-ADR
Method: as §1

[4] = tested on: PC-3 human prostate tumor cells; assay: MTT assay, human prostate tumor cell growth, PC-3; details: 144 h, PC-3 cells, MTT six days after drug treatment, read-out: ID50 (μM) values for Human prostate tumor Cell Lines PC-3
Method: as §1

[5] = tested on: DuPro human prostate tumor cells; assay: MTT assay, human prostate tumor cell growth, DuPro; details: 144 h, MTT six days after drug treatment, read-out: ID50 (μM) values for Human prostate tumor Cell Lines DuPro
Method: as §1

[6] = tested on: Tsu-pr1 human prostate tumor cells; assay: MTT assay, human prostate tumor cell growth, Tsu-pr1; details: 144 h, MTT six days after drug treatment, read-out: ID50 (μM) values for Human prostate tumor Cell Lines Tsu-pr1
Method: as §1

[7] = tested on: Panc-1 human pancreatic cancer cells; assay: MTT assay, human pancreatic cancer cell growth, Panc-1; details: 144 h, Panc-1 cells, MTT six days after drug treatment, read-out: ID50(μM) values for Human Pancreatic Cancer Cell Lines Panc-1
Method: as §1

IC50 [2] | IC50 [3] | IC50 [4] | IC50 [5] | IC50 [6] | IC50 [7] | Structure (SMILES) | IC50 [1]
5.92 µM | 12.6 µM | 1.7 µM | 1.9 µM | 1.87 µM | 12.5 µM | CCCCCCCCCCCCCC1CCN(CCCNC(=O)CCC2=C(C)c3cc4[nH]c(cc5nc(cc6[nH]c(cc2n3)c(CCC(=O)NCCCN2CCCN(C)CCCCN(C)CCCN(C)C(CCCCCCCCCCCCC)CC2)c6C)C(CC)=C5C)c(CC)c4C)CCCN(C)CCCCN(C)CCCN1C (stereo not drawn) [SL-11237] | 2.3 µM
6.87 µM | – | 2.8 µM | 3.6 µM | – | 6.38 µM | CCNCCCCNCC1CC1CNCCCCN(CC)C(=O)CCC1=C(C)c2cc3[nH]c(cc4nc(cc5[nH]c(cc1n2)c(CCC(=O)N(CC)CCCCNCC1CC1CNCCCCNCC)c5C)C(CC)=C4C)c(CC)c3C (stereo not drawn) [SL-11217] | 5.65 µM
